Tested on: AKT
Assay: Western blot of AKT protein levels and downstream signaling in BT474 cells
Format: cell-based, human
Details: Western blot (FIGS. 1, 3, 4)
Protocol: PC-3, U87MG, HCC1143, MDA-MB-231, MDA-MB-468, BT474 and MCF-7 cell lines were purchased from ATCC. Cell lines were regularly tested in the lab for mycoplasma. All cells were cultured at 37° C. and 5% CO2. PC-3, U87MG, MDA-MB-231, MCF-7 and BT474 cells were cultured in 1×DMEM (Corning, 10-013-CV) with 10% fetal bovine serum (Atlanta Biologicals S11150) and 1× Penicillin/Streptomycin. HCC1143 cells were cultured in RPMI (Corning, 10-040-CV) medium with 10% fetal bovine serum (Atlanta Biologicals S11150) and 1× Penicillin/Streptomycin. Cells were split using 0.05% or 0.25% trypsin (Corning 25-051-Cl or 25-053-Cl, respectively) before they reached full confluence and media was changed every 3-4 days. Cells were treated with compounds individually at different concentrations for 24 hrs. Cells were treated with DMSO, VHL, or PML alone as controls.
Cells were lysed in 2× sample buffer (125 mM Tris-HCl at pH 6.8, 10% βME, 2% SDS, 20% glycerol, 0.05% Bromophenol Blue, 8 M urea). Protein lysates were loaded into 4-12% Bis-Tris gels and resolved by electrophoresis. Samples were then blotted on PVDF membrane (Millipore IPVH00010) using the wet transfer technique (Invitrogen). Membranes were blocked in 5% milk-TBST for 1 hour, washed in TBST for 10 min, and incubated in primary antibody in 5% milk-TBST or 5% BSA-TBST at 4° C. for 16 h. Membranes were rinsed (3×6 min) in TBST and incubated in horseradish peroxidase-conjugated secondary antibodies in 5% milk-TBST for 1 hour and rinsed again in TBST (3×6 min). Membranes were visualized using the chemiluminescence system (Thermo 34080, 37075) on autoradiography film (Denville E3018). Primary Antibodies: R-actin (Sigma A5316), p-AKT (Ser473 CST-9721), total AKT (CST-9272), p-S6 (Ser240/244, CST-5364), p-PRAS40 (Thr246, CST-2997). Secondary Antibodies: Mouse (Thermo 31432), Rabbit (Thermo 31460).

| SMILES | suppression of AKT protein level and AKT activity |
| --- | --- |
| Cc1ncsc1-c1ccc(CNC(=O)[C@@H]2C[C@@H](O)CN2C(=O)[C@@H](NC(=O)CCCCCCCCCNC(=O)CCNC[C@@H](C(=O)N2CCN(c3ncnc4c3[C@H](C)C[C@H]4O)CC2)c2ccc(Cl)cc2)C(C)(C)C)cc1 [XF038-165A, (2S,4R)-1-((S)-2-(10-(3-(((S)-2-(4-chlorophenyl)-3-(4-((5R,7R)-7-hydroxy-5-methyl-6,7-dihydro-5H-cyclopenta[d]pyrimidin-4-yl)piperazin-1-yl)-3-oxopropyl)amino)propanamido)decanamido)-3,3-dimethylbutanoyl)-4-hydroxy-N-(4-(4-methylthiazol-5-yl)benzyl)pyrrolidine-2-carboxamide] | effective in suppressing both AKT protein level and AKT activity |
| C[C@@H]1C[C@@H](O)c2ncnc(N3CCN(C(=O)[C@H](CNCCC(=O)NCCOCCOCCOCCOCCNc4cccc5c4C(=O)N(C4CCC(=O)NC4=O)C5=O)c4ccc(Cl)cc4)CC3)c21 (stereo partly drawn) [XF038-176A, 3-(((S)-2-(4-chlorophenyl)-3-(4-((5R,7R)-7-hydroxy-5-methyl-6,7-dihydro-5H-cyclopenta[d]pyrimidin-4-yl)piperazin-1-yl)-3-oxopropyl)amino)-N-(14-((2-(2,6-dioxopiperidin-3-yl)-1,3-dioxoisoindolin-4-yl)amino)-3,6,9,12-tetraoxatetradecyl)propanamide] | effective in suppressing both AKT protein level and AKT activity |
| C[C@@H]1C[C@@H](O)c2ncnc(N3CCN(C(=O)[C@H](CNCCC(=O)NCCOCCOCCOCCOCCOCCNc4cccc5c4C(=O)N(C4CCC(=O)NC4=O)C5=O)c4ccc(Cl)cc4)CC3)c21 (stereo partly drawn) [XF038-177A, 3-(((S)-2-(4-chlorophenyl)-3-(4-((5R,7R)-7-hydroxy-5-methyl-6,7-dihydro-5H-cyclopenta[d]pyrimidin-4-yl)piperazin-1-yl)-3-oxopropyl)amino)-N-(17-((2-(2,6-dioxopiperidin-3-yl)-1,3-dioxoisoindolin-4-yl)amino)-3,6,9,12,15-pentaoxaheptadecyl) propanamide] | effective in suppressing both AKT protein level and AKT activity |
| C[C@@H]1C[C@@H](O)c2ncnc(N3CCN(C(=O)[C@H](CNCCC(=O)NCCCCCCNc4cccc5c4C(=O)N(C4CCC(=O)NC4=O)C5=O)c4ccc(Cl)cc4)CC3)c21 (stereo partly drawn) [XF042-168, 3-(((S)-2-(4-chlorophenyl)-3-(4-((5R,7R)-7-hydroxy-5-methyl-6,7-dihydro-5H-cyclopenta[d]pyrimidin-4-yl)piperazin-1-yl)-3-oxopropyl)amino)-N-(6-((2-(2,6-dioxopiperidin-3-yl)-1,3-dioxoisoindolin-4-yl)amino)hexyl)propanamide] | effective in suppressing both AKT protein level and AKT activity |
| C[C@@H]1C[C@@H](O)c2ncnc(N3CCN(C(=O)[C@H](CNCCNC(=O)CCOCCOCCNc4cccc5c4C(=O)N(C4CCC(=O)NC4=O)C5=O)c4ccc(Cl)cc4)CC3)c21 (stereo partly drawn) [XF048-1, N-(2-(((N)-2-(4-chlorophenyl)-3-(4-((5R,7R)-7-hydroxy-5-methyl-6,7-dihydro-5H-cyclopenta[d]pyrimidin-4-yl)piperazin-1-yl)-3-oxopropyl)amino)ethyl)-3-(2-(2-((2-(2,6-dioxopiperidin-3-yl)-1,3-dioxoisoindolin-4-yl)amino)ethoxy)ethoxy) propanamide] | effective in suppressing both AKT protein level and AKT activity |
| C[C@@H]1C[C@@H](O)c2ncnc(N3CCN(C(=O)[C@H](CNCCNC(=O)CCOCCOCCOCCNc4cccc5c4C(=O)N(C4CCC(=O)NC4=O)C5=O)c4ccc(Cl)cc4)CC3)c21 (stereo partly drawn) [XF048-2, N-(2-(((S)-2-(4-chlorophenyl)-3-(4-((5R,7R)-7-hydroxy-5-methyl-6,7-dihydro-5H-cyclopenta[d]pyrimidin-4-yl)piperazin-1-yl)-3-oxopropyl)amino)ethyl)-3-(2-(2-(2-((2-(2,6-dioxopiperidin-3-yl)-1,3-dioxoisoindolin-4-yl)amino)ethoxy)ethoxy)ethoxy)propanamide] | effective in suppressing both AKT protein level and AKT activity |
| C[C@@H]1C[C@@H](O)c2ncnc(N3CCN(C(=O)[C@H](CNCCNC(=O)CCOCCOCCOCCOCCNc4cccc5c4C(=O)N(C4CCC(=O)NC4=O)C5=O)c4ccc(Cl)cc4)CC3)c21 (stereo partly drawn) [XF048-3, N-(2-(((S)-2-(4-chlorophenyl)-3-(4-((5R,7R)-7-hydroxy-5-methyl-6,7-dihydro-5H-cyclopenta[d]pyrimidin-4-yl)piperazin-1-yl)-3-oxopropyl)amino)ethyl)-1-((2-(2,6-dioxopiperidin-3-yl)-1,3-dioxoisoindolin-4-yl)amino)-3,6,9,12-tetraoxapentadecan-15-amide] | effective in suppressing both AKT protein level and AKT activity |
| C[C@@H]1C[C@@H](O)c2ncnc(N3CCN(C(=O)[C@H](CNCCNC(=O)CCOCCOCCOCCOCCOCCNc4cccc5c4C(=O)N(C4CCC(=O)NC4=O)C5=O)c4ccc(Cl)cc4)CC3)c21 (stereo partly drawn) [XF048-4, N-(2-(((S)-2-(4-chlorophenyl)-3-(4-((5R,7R)-7-hydroxy-5-methyl-6,7-dihydro-5H-cyclopenta[d]pyrimidin-4-yl)piperazin-1-yl)-3-oxopropyl)amino)ethyl)-1-((2-(2,6-dioxopiperidin-3-yl)-1,3-dioxoisoindolin-4-yl)amino)-3,6,9,12,15-pentaoxaoetadecan-18-amide] | effective in suppressing both AKT protein level and AKT activity |
| C[C@@H]1C[C@@H](O)c2ncnc(N3CCN(C(=O)[C@H](CNCCC(=O)NCCCCCCCNc4cccc5c4C(=O)N(C4CCC(=O)NC4=O)C5=O)c4ccc(Cl)cc4)CC3)c21 (stereo partly drawn) [XF048-5, 3-(((S)-2-(4-chlorophenyl)-3-(4-((5R,7R)-7-hydroxy-5-methyl-6,7-dihydro-5H-cyclopenta[d]pyrimidin-4-yl)piperazin-1-yl)-3-oxopropyl)amino)-N-(7-((2-(2,6-dioxopiperidin-3-yl)-1,3-dioxoisoindolin-4-yl)amino)heptyl)propanamide] | effective in suppressing both AKT protein level and AKT activity |
| C[C@@H]1C[C@@H](O)c2ncnc(N3CCN(C(=O)[C@H](CNCCC(=O)NCCOCCOCCNc4cccc5c4C(=O)N(C4CCC(=O)NC4=O)C5=O)c4ccc(Cl)cc4)CC3)c21 (stereo partly drawn) [XF048-7, 3-(((S)-2-(4-chlorophenyl)-3-(4-((5R,7R)-7-hydroxy-5-methyl-6,7-dihydro-5H-cyclopenta[d]pyrimidin-4-yl)piperazin-1-yl)-3-oxopropyl)amino)-N-(2-(2-(2-((2-(2,6-dioxopiperidin-3-yl)-1,3-dioxoisoindolin-4-yl)amino)ethoxy)ethoxy)ethyl) propanamide] | effective in suppressing both AKT protein level and AKT activity |
| C[C@@H]1C[C@@H](O)c2ncnc(N3CCN(C(=O)[C@H](CNCCC(=O)NCCOCCOCCOCCNc4cccc5c4C(=O)N(C4CCC(=O)NC4=O)C5=O)c4ccc(Cl)cc4)CC3)c21 (stereo partly drawn) [XF048-8, 3-(((S)-2-(4-chlorophenyl)-3-(4-((5R,7R)-7-hydroxy-5-methyl-6,7-dihydro-5H-cyclopenta[d]pyrimidin-4-yl)piperazin-1-yl)-3-oxopropyl)amino)-N-(2-(2-(2-(2-((2-(2,6-dioxopiperidin-3-yl)-1,3-dioxoisoindolin-4-yl)amino)ethoxy)ethoxy)ethoxy)ethyl)propanamide] | effective in suppressing both AKT protein level and AKT activity |
| Cc1ncsc1-c1ccc(CNC(=O)[C@@H]2C[C@@H](O)CN2C(=O)[C@@H](NC(=O)COCC(=O)N2CCN(CC[C@H](NC(=O)C3(N)CCN(c4ncnc5[nH]ccc45)CC3)c3ccc(Cl)cc3)CC2)C(C)(C)C)cc1 [XF050-5, 4-amino-N-((S)-1-(4-chlorophenyl)-3-(4-(2-(2-(((S)-1-((2S,4R)-4-hydroxy-2-((4-(4-methylthiazol-5-yl)benzyl)carbamoyl)pyrrolidin-1-yl)-3,3-dimethyl-1-oxobutan-2-yl)amino)-2-oxoethoxy)acetyl)piperazin-1-yl)propyl)-1-(7H-pyrrolo[2,3-d]pyrimidin-4-yl)piperidine-4-carboxamide] | effective in suppressing both AKT protein level and AKT activity |

From patent US11472799B2, “Serine threonine kinase (AKT) degradation / disruption compounds and methods of use” (Icahn School of Medicine at Mount Sinai, priority 2018, dated 2022)
